From patent publication US20180185301A1, “PHARMACEUTICAL COMPOSITIONS COMPRISING POLYALKYLENE GLYCOL DERIVATIVES” (Symrise AG, priority 2015, published 2018)

Target: T1, PAR-2 (Homo sapiens, UniProt P55085)
T1 construct: human embryonic kidney 293 cells (HEK293) endogenously expressing PAR-2; endogenous in cells; host or cells: HEK293
T1 sequence (P55085 26-397): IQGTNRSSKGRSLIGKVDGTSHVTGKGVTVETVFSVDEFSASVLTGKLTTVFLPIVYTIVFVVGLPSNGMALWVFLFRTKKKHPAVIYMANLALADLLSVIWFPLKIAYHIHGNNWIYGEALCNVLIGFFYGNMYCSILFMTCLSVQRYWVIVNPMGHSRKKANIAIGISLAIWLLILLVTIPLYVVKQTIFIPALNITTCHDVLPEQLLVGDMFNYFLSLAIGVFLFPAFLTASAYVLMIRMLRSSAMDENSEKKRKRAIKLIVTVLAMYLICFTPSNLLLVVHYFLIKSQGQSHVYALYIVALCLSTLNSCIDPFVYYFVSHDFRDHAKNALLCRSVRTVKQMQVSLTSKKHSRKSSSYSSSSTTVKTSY
Assay: In vitro PAR-2 assay (trypsin-evoked calcium signal, Fluo-4)
Format: cell-based
Conditions: for IC50: HEK293 cells endogenously expressing PAR-2, in the presence of 4 nM trypsin, calcium imaging
Experimental: Assay Principle: A cellular in vitro assay was developed with human embryonic kidney 293 cells (HEK293) endogenously expressing PAR-2. The PAR-2 activating protease trypsin (EC50: ˜1 nM) was used as an agonistic stimulus with subsequent Fluo-4 dependent intracellular calcium detection (calcium imaging).
A cell-based calcium assay was applied for the identification of PAR-2 antagonistic effects of polyethylene glycol esters and polyethylene glycol ethers. Functional modulation of PAR-2 by the tested compounds was measured and quantified using the calcium sensitive fluorescent probe Fluo-4 AM on a fluorescence microplate reader. Activation of PAR-2 by an agonist (trypsin) led to an increase in the intracellular calcium concentration and thus an increase in fluorescence intensity.
Human embryonic kidney 293 cells (HEK293) endogenously expressing PAR-2 were cultured in DMEM (high glucose) supplemented with tetracycline-free FCS (10% v/v), L-glutamine (4 mM), blasticidin (15 μg/ml), zeocin (100 μg/ml) and puromycin (2 μg/ml) in a water-saturated atmosphere at 37° C. and 5% CO2.
Cells were seeded onto 96-well clear-bottom black-walled assay plates at a density of 45.000 cells per well in 100 μl of cell culture medium. Intracellular calcium increase in the living cells due to receptor activation was monitored 24 h later using the calcium sensitive fluorescent probe Fluo-4 AM on a fluorescence microplate reader (FlexStation® system, Molecular Devices). […]
Medium was replaced with 150 μl KH buffer supplemented with sulfinpyrazone (250 μM). Subsequently, 50 μl KH buffer supplemented with the screening compounds or control substances were added and the cells were incubated for 10 min. under assay conditions in the microplate reader. Changes in fluorescence were recorded at 37° C. after addition of 50 μl KH buffer supplemented with the PAR-2 agonist trypsin (final concentration of 4 nM under measurement conditions).
Calcium mobilization was quantified as the change of peak fluorescence (ΔF) over the baseline level (F). The data was analysed with the software of the microplate reader. […]

Substance | IC50 [µM] | EC50 (HEK293 cells, Fluo-4 calcium detection, read-out: EC50 of PAR-2 activating protease (agonistic stimulus)) [nM]
PEG-5 Isononanoate | 100 | –
PEG-9 Tridecylether | 65 | –
trypsin [reference compound] | – | ~1
